Calls of active or inactive are those of the source. The calls are words filed in the database; no cut-off is given here.
Legend:
PC-3 [1] = assay: Inhibition of epithelial mesenchymal transition in human PC-3 cells assessed as upregulation of ZO-1 protein expression at 20 uM incubated for 48 hrs by Western blot analysis; format: functional, cell-based
PC-3 [2] = assay: Antiproliferative activity against human PC-3 cells assessed as reduction in cell viability by MTT assay; format: functional, cell-based
DU-145 [3] = assay: Inhibition of epithelial mesenchymal transition in human DU-145 cells assessed as downregulation of N-cadherin protein expression at 20 uM incubated for 48 hrs by Western blot analysis; format: functional, cell-based
PC-3 [4] = assay: Inhibition of epithelial mesenchymal transition in human PC-3 cells assessed as downregulation of N-cadherin protein expression at 20 uM incubated for 48 hrs by Western blot analysis; format: functional, cell-based
DU-145 [5] = assay: Inhibition of epithelial mesenchymal transition in human DU-145 cells assessed as downregulation of Slug protein expression at 20 uM incubated for 48 hrs by Western blot analysis; format: functional, cell-based
PC-3 [6] = assay: Inhibition of cancer stem cell activity in human PC-3 cells assessed as decrease in Nanog protein expression at 20 uM incubated for 48 hrs by Western blot analysis; format: functional, cell-based
DU-145 [7] = assay: Inhibition of epithelial mesenchymal transition in human DU-145 cells assessed as downregulation of Vimentin protein expression at 20 uM incubated for 48 hrs by Western blot analysis; format: functional, cell-based
DU-145 [8] = assay: Inhibition of epithelial mesenchymal transition in human DU-145 cells assessed as downregulation of ZEBI protein expression at 20 uM incubated for 48 hrs by Western blot analysis; format: functional, cell-based
DU-145 [9] = assay: Antiproliferative activity against human DU-145 cells assessed as reduction in cell viability by MTT assay; format: functional, cell-based
DU-145 [10] = assay: Inhibition of cancer stem cell activity in human DU-145 cells assessed as decrease in C-myc protein expression at 20 uM incubated for 48 hrs by Western blot analysis; format: functional, cell-based
PC-3 [11] = assay: Inhibition of epithelial mesenchymal transition in human PC-3 cells assessed as downregulation of Slug protein expression at 20 uM incubated for 48 hrs by Western blot analysis; format: functional, cell-based
PC-3 [12] = assay: Inhibition of cancer stem cell activity in human PC-3 cells assessed as decrease in KLF4 protein expression at 20 uM incubated for 48 hrs by Western blot analysis; format: functional, cell-based
PC-3 [13] = assay: Synergistic antiproliferative activity against human PC-3 cells assessed as combination index incubated for 24 hrs in the presence of enzalutamide by MTT assay; format: functional
DU-145 [14] = assay: Inhibition of epithelial mesenchymal transition in human DU-145 cells assessed as upregulation of E-cadherin protein expression at 20 uM incubated for 48 hrs by Western blot analysis; format: functional, cell-based
[15] = target: T1, Forkhead box protein C2 (Homo sapiens) (UniProt Q99958); assay: Induction of FOXC2 degradation in human DU-145 cells assessed as decrease in FOXC2 protein level at 20 uM incubated for 48 hrs by Western blot analysis; format: cell-based
T1 sequence (whole entry): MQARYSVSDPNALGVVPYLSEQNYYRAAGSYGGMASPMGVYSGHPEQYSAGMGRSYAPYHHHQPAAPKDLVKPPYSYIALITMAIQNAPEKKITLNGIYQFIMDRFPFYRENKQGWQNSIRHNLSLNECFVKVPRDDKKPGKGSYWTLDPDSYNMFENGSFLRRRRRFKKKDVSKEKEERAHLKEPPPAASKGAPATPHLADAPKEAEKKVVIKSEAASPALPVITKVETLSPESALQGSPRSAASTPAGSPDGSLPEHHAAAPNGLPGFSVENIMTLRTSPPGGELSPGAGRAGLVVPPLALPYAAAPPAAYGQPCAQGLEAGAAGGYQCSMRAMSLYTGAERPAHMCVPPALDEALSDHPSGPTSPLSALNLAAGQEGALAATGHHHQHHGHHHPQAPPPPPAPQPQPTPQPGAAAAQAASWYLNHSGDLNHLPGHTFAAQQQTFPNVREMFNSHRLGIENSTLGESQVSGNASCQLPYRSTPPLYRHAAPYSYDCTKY

DU-145 [16] = assay: Synergistic antiproliferative activity against human DU-145 cells assessed as reduction in cell viability incubated for 24 hrs in the presence of docetaxel by MTT assay; format: functional, cell-based
DU-145 [17] = assay: Synergistic antiproliferative activity against human DU-145 cells assessed as combination index incubated for 24 hrs in the presence of enzalutamide by MTT assay; format: functional
PC-3 [18] = assay: Inhibition of epithelial mesenchymal transition in human PC-3 cells assessed as upregulation of E-cadherin protein expression at 20 uM incubated for 48 hrs by Western blot analysis; format: functional, cell-based
LNCaP [19] = assay: Synergistic antiproliferative activity against human LNCaP cells assessed as inhibition of cell growth in presence of docetaxel by MTT assay; format: functional, cell-based
DU-145 [20] = assay: Inhibition of epithelial mesenchymal transition in human DU-145 cells assessed as upregulation of ZO-1 protein expression at 20 uM incubated for 48 hrs by Western blot analysis; format: functional, cell-based
PC-3 [21] = assay: Effect on FOXC2 gene expression level in human PC-3 cells; format: functional, cell-based
DU-145 [22] = assay: Effect on FOXC2 gene expression level in human DU-145 cells; format: functional, cell-based
[23] = target: T1, Forkhead box protein C2 (Homo sapiens); assay: Induction of FOXC2 degradation in human PC-3 cells assessed as decrease in FOXC2 protein level at 20 uM incubated for 48 hrs by Western blot analysis; format: cell-based
PC-3 [24] = assay: Inhibition of cancer stem cell activity in human PC-3 cells assessed as decrease in C-myc protein expression at 20 uM incubated for 48 hrs by Western blot analysis; format: functional, cell-based
PC-3 [25] = assay: Antimetastatic activity in human PC-3 cells assessed as inhibition of cell invasion at 20 uM incubated for 24 hrs by transwell invasion assay; format: functional, cell-based
PC-3 [26] = assay: Inhibition of epithelial mesenchymal transition in human PC-3 cells assessed as downregulation of Vimentin protein expression at 20 uM incubated for 48 hrs by Western blot analysis; format: functional, cell-based
LNCaP [27] = assay: Antimetastatic activity in human LNCaP cells assessed as inhibition of cell invasion by measuring change in number of invading cells by transwell invasion assay; format: functional, cell-based
PC-3 [28] = assay: Inhibition of epithelial mesenchymal transition in human PC-3 cells assessed as downregulation of ZEBI protein expression at 20 uM incubated for 48 hrs by Western blot analysis; format: functional, cell-based
DU-145 [29] = assay: Antimetastatic activity in human DU-145 cells assessed as inhibition of cell invasion at 20 uM incubated for 24 hrs by transwell invasion assay; format: functional, cell-based
DU-145 [30] = assay: Inhibition of cancer stem cell activity in human DU-145 cells assessed as decrease in Nanog protein expression at 20 uM incubated for 48 hrs by Western blot analysis; format: functional, cell-based
PC-3 [31] = assay: Synergistic antiproliferative activity against human PC-3 cells assessed as reduction in cell viability incubated for 24 hrs in the presence of docetaxel by MTT assay; format: functional, cell-based
DU-145 [32] = assay: Inhibition of cancer stem cell activity in human DU-145 cells assessed as decrease in KLF4 protein expression at 20 uM incubated for 48 hrs by Western blot analysis; format: functional, cell-based

N=C(N)NCCCCNc1nc(Nc2ccc(Oc3ccccc3)cc2)nc(N2CCN(c3nc(N)nc(Nc4ccc(N5CCOCC5)cc4)n3)CC2)n1
inhibition (PC-3 [1]): Active
EC50 (PC-3 [2]): 53.2 µM
inhibition (DU-145 [3]): Active
inhibition (PC-3 [4]): Active
inhibition (DU-145 [5]): Active
inhibition (PC-3 [6]): Active
inhibition (DU-145 [7]): Active
inhibition (DU-145 [8]): Active
EC50 (DU-145 [9]): 48.1 µM
inhibition (DU-145 [10]): Active
inhibition (PC-3 [11]): Active
inhibition (PC-3 [12]): Active
CI (PC-3 [13]): >1
inhibition (DU-145 [14]): Active
Activity [15]: Active
Activity (DU-145 [16]): Active
CI (DU-145 [17]): >1
inhibition (PC-3 [18]): Active
Activity (LNCaP [19]): inactive
inhibition (DU-145 [20]): Active
Activity (PC-3 [21]): inactive
Activity (DU-145 [22]): inactive
Activity [23]: Active
inhibition (PC-3 [24]): Active
Activity (PC-3 [25]): Active
inhibition (PC-3 [26]): Active
Activity (LNCaP [27]): inactive
inhibition (PC-3 [28]): Active
Activity (DU-145 [29]): Active
inhibition (DU-145 [30]): Active
Activity (PC-3 [31]): Active
inhibition (DU-145 [32]): Active

CC(=O)O[C@@]12CO[C@@H]1C[C@H](O)[C@@]1(C)C(=O)[C@H](O)C3=C(C)[C@@H](OC(=O)[C@H](O)[C@@H](NC(=O)OC(C)(C)C)c4ccccc4)C[C@@](O)([C@@H](OC(=O)c4ccccc4)[C@H]21)C3(C)C [DOCETAXEL ANHYDROUS]
EC50 (PC-3 [2]): 0.0076 µM
EC50 (DU-145 [9]): 0.00605 µM

CNC(=O)c1ccc(N2C(=S)N(c3ccc(C#N)c(C(F)(F)F)c3)C(=O)C2(C)C)cc1F
Activity (PC-3 [2]): inactive
Activity (DU-145 [9]): inactive

From ChEMBL document CHEMBL5321252, “A FOXC2 inhibitor, MC-1-F2, as a therapeutic candidate for targeting EMT in castration-resistant prostate cancer” (Bioorg Med Chem Lett, 2023)
